One data set has as its system study subjects. Description: Treatment of study subjects with peroral daily doses according to intermittent administration schemes. In kind it is in vivo, human. The following applies: same doses and administration schemes; 50-150 mg perorally daily as a single dose. The procedure:
(§1) Study subjects are treated with compound (76) with the following doses according to the following administration schemes: • in a 3 month trial, 75 mg or 150 mg compound (76) administered perorally daily as a single dose on day 2-7 of the menstrual cycle • in a 3 months trial, 75 mg, 100 mg or 150 mg compound (76) administered perorally daily as a single dose on day 2-7 of the menstrual cycle followed by a 3 months treatment-free period • in a 6 months trial, 75 mg or 150 mg compound (76) administered perorally daily as a single dose • 50 mg or 150 mg per compound (76) administered daily as a single dose over 42 days (6 weeks)
as §1, with “(68)” for “(76)”
as §1, with “36” for “(76)”
as §1, with “37” for “(76)”
as §1, with “52” for “(76)”
as §1, with “144” for “(76)”, “weeks) […]” for “weeks)”

The conditions of data set [1]: in vivo; cited from earlier work.
The target in a further data set is LHRH receptor (Homo sapiens, UniProt P30968). The following applies: Cho N et al., J. Med. Chem. 1998; cited from earlier work.
Chain of LHRH receptor (P30968 whole entry): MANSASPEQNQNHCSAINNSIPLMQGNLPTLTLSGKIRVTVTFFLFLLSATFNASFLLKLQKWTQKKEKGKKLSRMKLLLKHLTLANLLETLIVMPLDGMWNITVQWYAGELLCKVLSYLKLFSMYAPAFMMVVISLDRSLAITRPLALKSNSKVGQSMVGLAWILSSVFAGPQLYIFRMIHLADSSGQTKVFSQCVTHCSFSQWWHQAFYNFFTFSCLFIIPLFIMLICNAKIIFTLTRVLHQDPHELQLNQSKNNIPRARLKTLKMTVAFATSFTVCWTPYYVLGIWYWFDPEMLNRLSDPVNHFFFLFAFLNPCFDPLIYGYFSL

For `CCC(C)[C@H](NC(=O)Cc1ccccc1F)C(=O)N[C@]1(C(=O)N[C@H](C(N)=S)C(C)CC)CCc2[nH]c3c(Cl)cc(F)cc3c2C1` (some centres unmarked) [compound (68)], the “prevention of chemical (hormonal) castration” value (shortened to “prevention of chemical”) in the data set on study subjects is reported as “successfully prevented”.
For the molecule `CC(C)OC(=O)c1cn(Cc2c(F)cccc2F)c2sc(-c3ccc(NC(=O)C(C)C)cc3)c(CN(C)Cc3ccccc3)c2c1=O` [T-98475], in data set [1], the bioavailability entry is given as “low”. The receptor affinity entry on LHRH receptor is “high”.
Take `CCC(C)[C@H](NC(=O)Cc1ccccc1F)C(=O)N[C@]1(C(=O)N[C@H](C(=O)NNc2ccccc2)C(C)CC)CCc2[nH]c3c(C(F)(F)F)cccc3c2C1` (stereo partly drawn) [Compound 144, (R)-3-{(S)-2-[2-(2-Fluoro-phenyl)-acetylamino]-3-methyl-pentanoylamino}-8-trifluoromethyl-2,3,4,9-tetrahydro-1H-carbazole-3-carboxylic acid [(S)-2-methyl-1-(N′-phenyl-hydrazinocarbonyl)-butyl]-amide]: in the data set with study subjects, the “prevention of chemical” value is recorded as “successfully prevented”.
Take `CCC(C)[C@H](NC(=O)Cc1ccccc1F)C(=O)N[C@]1(C(=O)N[C@H](C(=O)NCN2CCOCC2)C(C)CC)CCc2[nH]c3c(C(F)(F)F)cccc3c2C1` (stereo partly drawn) [Compound 36, (R)-3-{(S)-2-[2-(2-Fluoro-phenyl)-acetylamino]-3-methyl-pentanoylamino}-8-trifluoromethyl-2,3,4,9-tetrahydro-1H-carbazole-3-carboxylic acid {(S)-2-methyl-1-[(morpholin-4-ylmethyl)-carbamoyl]-butyl}-amide]: in the data set with study subjects, the “prevention of chemical” value is listed as “successfully prevented”.
Still for that read-out and setting: the same measure for `CCC(C)[C@H](NC(=O)Cc1ccccc1F)C(=O)N[C@]1(C(=O)N[C@H](C(=S)NCC2CCOCC2)C(C)CC)CCc2[nH]c3c(C(F)(F)F)cccc3c2C1` (stereo partly drawn) [Compound 52, (R)-3-{(S)-2-[2-(2-Fluoro-phenyl)-acetylamino]-3-methyl-pentanoylamino}-8-trifluoromethyl-2,3,4,9-tetrahydro-1H-carbazole-3-carboxylic acid {(S)-2-methyl-1-[(tetrahydro-pyran-4-ylmethyl)-thiocarbamoyl]-butyl}-amide]: “successfully prevented”; for `CCC(C)[C@H](NC(=O)Cc1ccccc1F)C(=O)N[C@]1(C(=O)N[C@H](C(N)=S)C(C)CC)CCc2[nH]c3c(C(F)(F)F)cccc3c2C1` (stereo partly drawn) [compound (76), (R)-3-{(S)-2-[2-(2-fluorophenyl)acetylamino]-3-methylpentanoylamino}-8-trifluoro-methyl-2,3,4,9-tetrahydro-1H-carbazole-3-carboxylic acid ((S)-2-methyl-1-thio-carbamoylbutyl)amide]: “successfully prevented”; for `CCC(C)[C@H](NC(=O)Cc1ccccc1F)C(=O)N[C@]1(C(=O)N[C@H](C(=S)NCN2CCOCC2)C(C)CC)CCc2[nH]c3c(C(F)(F)F)cccc3c2C1` (stereo partly drawn) [Compound 37, (R)-3-{(S)-2-[2-(2-Fluoro-phenyl)-acetylamino]-3-methyl-pentanoylamino}-8-trifluoromethyl-2,3,4,9-tetrahydro-1H-carbazole-3-carboxylic acid {(S)-2-methyl-1-[(morpholin-4-ylmethyl)-thiocarbamoyl]-butyl}-amide]: “successfully prevented”.

(Values after patent publication US8273716B2, “Use of LHRH antagonists for intermittent treatments” (Spectrum Pharmaceuticals, Inc., priority 2008, dated 2012).)
